From patent publication US8507512B2, “Soluble guanylate cyclase activators” (Merck Sharp & Dohme Corp., priority 2009, dated 2013) come the findings set out here.

The experiment addresses T1, sGC α1/β1 heterodimer (Homo sapiens, UniProt Q02108+Q02153).
T1 construct: expressed in transfected cells
T1 sequence (Q02108 1-690 partner): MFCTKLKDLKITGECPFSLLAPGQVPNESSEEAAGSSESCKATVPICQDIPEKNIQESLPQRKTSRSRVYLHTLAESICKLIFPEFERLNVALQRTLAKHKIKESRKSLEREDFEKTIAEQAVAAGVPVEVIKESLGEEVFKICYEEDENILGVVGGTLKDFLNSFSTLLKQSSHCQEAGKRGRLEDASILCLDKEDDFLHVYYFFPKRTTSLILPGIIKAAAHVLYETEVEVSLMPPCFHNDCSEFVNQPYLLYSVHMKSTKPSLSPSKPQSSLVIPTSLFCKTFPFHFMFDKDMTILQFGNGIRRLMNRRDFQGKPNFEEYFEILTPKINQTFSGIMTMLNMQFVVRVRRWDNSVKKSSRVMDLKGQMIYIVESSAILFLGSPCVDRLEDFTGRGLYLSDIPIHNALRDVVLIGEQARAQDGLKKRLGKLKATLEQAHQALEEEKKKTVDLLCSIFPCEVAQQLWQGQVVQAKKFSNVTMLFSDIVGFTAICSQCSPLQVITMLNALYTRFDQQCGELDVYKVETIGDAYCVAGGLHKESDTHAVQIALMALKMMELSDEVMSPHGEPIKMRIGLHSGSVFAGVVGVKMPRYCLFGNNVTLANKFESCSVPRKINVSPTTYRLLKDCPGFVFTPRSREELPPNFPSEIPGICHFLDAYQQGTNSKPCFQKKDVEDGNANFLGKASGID
T1 sequence (Q02153 1-619): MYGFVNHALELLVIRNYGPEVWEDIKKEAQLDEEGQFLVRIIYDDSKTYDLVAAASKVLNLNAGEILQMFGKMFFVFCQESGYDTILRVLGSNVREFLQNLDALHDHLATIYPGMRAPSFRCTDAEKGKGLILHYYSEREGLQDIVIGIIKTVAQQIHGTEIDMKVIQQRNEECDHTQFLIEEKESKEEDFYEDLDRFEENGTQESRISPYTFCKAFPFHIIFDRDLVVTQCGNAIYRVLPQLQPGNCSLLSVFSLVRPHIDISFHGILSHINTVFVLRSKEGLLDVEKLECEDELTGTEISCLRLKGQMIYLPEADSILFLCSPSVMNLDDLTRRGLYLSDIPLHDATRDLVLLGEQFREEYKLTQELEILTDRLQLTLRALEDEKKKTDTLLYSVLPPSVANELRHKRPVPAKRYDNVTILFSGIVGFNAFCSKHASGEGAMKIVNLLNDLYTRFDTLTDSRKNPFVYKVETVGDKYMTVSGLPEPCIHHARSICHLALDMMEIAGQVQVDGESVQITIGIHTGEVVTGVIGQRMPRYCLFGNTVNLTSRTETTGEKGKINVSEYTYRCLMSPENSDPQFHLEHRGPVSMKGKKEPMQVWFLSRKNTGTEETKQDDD
Briefly: Cell-Based sGC Functional Assay (CASA Assay). Conditions: CHO-K1/sGC cells, with ODQ incubation (10 μM), 1 hr at 37° C., intracellular cGMP by HTRF; for EC50: read-out: IP (nM) (inflection point); for fold induction: read-out: maximum fold induction over DMSO control. As to the method: Cell-Based sGC Functional Assay (CASA Assay)
Rationale: sGC is a heme-containing enzyme that converts GTP (guanosine 5′-triphosphate) to secondary messenger cGMP. Increases in cGMP levels affect several physiological processes including vasorelaxation through multiple downstream pathways. […] Heme-independent activators (HIAs) preferentially activate sGC containing a ferric heme group, which can be generated upon incubation with 1H-(1,2,4)oxadiazolo(4,3-a) quinoxalin-1-one (ODQ). To determine the effect of sGC activators on enzyme activity, the CASA assay was developed to monitor the generation of cGMP in a cell line that stably expresses the heterodimeric sGC protein.
Methods: A CHO-K1 cell line stably expressing the sGC αl/β1 heterodimer was generated using a standard transfection protocol. CHO-K1 cells were transfected with plasmids pIREShyghsGCα1 and pIRESneo-hsGCβ1 simultaneously using FUGENE reagent. Clones that stably express both subunits were selected with hygromycin and neomycin for ˜2 weeks. Clone #7 was chosen for the assay and was designated CHO-K1/sGC. CHO-K1/sGC cells were maintained in F-K12 medium containing 10% heat-inactivated Fetal Bovine Serum (FBS), 100 μg/mL penicillin/streptomycin, 0.5 mg/mL hygromycin and 0.25 mg/mL G418. On the day of the assay, cells were harvested in EBSS (Earle's balanced salt solution) Assay Buffer (EAB) containing 5 mM MgCl2, 10 mM HEPES (4-(2-hydroxyethyl)piperazine-1-ethanesulfonic acid) and 0.05% BSA (bovine serum albumin) and cell density was adjusted to 2×10^6/mL with EAB. IBMX (3-isobutyl-1-methylxanthin, 0.5 mM) was added to inhibit degradation of cGMP. Compounds were diluted from DMSO stock solutions and added to the assay at a final DMSO concentration of 1%. Cells were incubated with compounds in the presence and absence of 10 μM of 1H-(1,2,4)oxadiazolo(4,3-a) quinoxalin-1-one (ODQ) for 1 hr at 37° C. At the end of the incubation period, the reaction was terminated and the cells were lysed. The level of intracellular cGMP was determined using an HTRF-based assay kit (CisBio, 62GM2PEC), which detects the displacement of a fluorescence labeled cGMP from its specific antibody. The amount of cGMP was plotted against compound concentration in PRISM software and the inflection point (IP) and maximum fold induction over DMSO control were derived from the plot.

A value given as a limit tells only on which side of the number the result lay.

For `O=C(O)c1cnn(-c2cccc(-c3ccccc3OCc3ccc(C4CCN(CC(F)(F)F)CC4)cc3)n2)c1C(F)(F)F` [Example 1, 1-[6-[2-[[4-[1-(2,2,2-Trifluoroethyl)-4-piperidinyl]phenyl]methoxy]phenyl]-2-pyridinyl]-5-(trifluoromethyl)-1H-pyrazole-4-carboxylic acid], the EC50 was 51.5 nM and the fold induction was found to be 281.
On to `O=C(O)c1cnn(-c2cccc(-c3cc(F)cc(Cl)c3OCc3ccc(C4CCN(CC(F)(F)F)CC4)cc3)n2)c1C(F)(F)F` [Example 2, 1-(6-(3-Chloro-5-fluoro-2-((4-(1-(2,2,2-trifluoroethyl)piperidin-4-yl)benzyl)oxy)phenyl)pyridin-2-yl)-5-(trifluoromethyl)-1H-pyrazole-4-carboxylic acid], for which the EC50 was 2.4 nM and the fold induction was 189.
With `Cc1cc(C2CCN(CC(F)(F)F)CC2)ccc1COc1ccccc1-c1cccc(-n2ncc(C(=O)O)c2C(F)(F)F)n1` [Example 3, 1-(6-(2-((2-Methyl-4-(1-(2,2,2-trifluoroethyl)piperidin-4-yl)benzyl)oxy)phenyl)pyridin-2-yl)-5-(trifluoromethyl)-1H-pyrazole-4-carboxylic acid], the EC50 worked out at 10.4 nM and the fold induction stood at 127.
For `COC(=O)N1CCC(c2ccc(COc3c(F)cccc3-c3cccc(-n4ncc(C(=O)O)c4C(F)(F)F)n3)cc2)CC1` [Example 5, 1-{6-[3-fluoro-2-({4-[1-(methoxycarbonyl)piperidin-4 yl]benzyl}oxy)phenyl]pyridin-2-yl}-5-(trifluoromethyl)-1H-pyrazole-4-carboxylic acid], in that order: 26.9 nM and 244.
Take `CCC(=O)N1CCC(c2ccc(COc3c(-c4cccc(-n5ncc(C(=O)O)c5C(F)(F)F)n4)cccc3C(F)(F)F)cc2)CC1` [Example 76, 1-(6-(2-((4-(1-propionylpiperidin-4-yl)benzyl)oxy)-3-(trifluoromethyl)phenyl)pyridin-2-yl)-5-(trifluoromethyl)-1H-pyrazole-4-carboxylic acid]: the EC50 was under 0.5 nM and the fold induction was 216.
In the case of `COC(=O)N1CCC(c2ccc(COc3c(-c4cccc(-n5ncc(C(=O)O)c5C(F)(F)F)n4)cccc3C(F)(F)F)cc2)CC1` [Example 77, 1-(6-(2-((4-(1-(methoxycarbonyl)piperidin-4-yl)benzyl)oxy)-3-(trifluoromethyl)phenyl)pyridin-2-yl)-5-(trifluoromethyl)-1H-pyrazole-4-carboxylic acid], the EC50 was determined as 1.5 nM and the fold induction was 151.
In the same order, the values of `O=C(O)c1cnn(-c2cccc(-c3cccc(C(F)(F)F)c3OCc3ccc(C4CCN(C(=O)C5CC5)CC4)cc3)n2)c1C(F)(F)F` [Example 81, 1-(6-(2-((4-(1-(cyclopropylcarbonyl)piperidin-4-yl)benzyl)oxy)-3-(trifluoromethyl)phenyl)pyridin-2-yl)-5-(trifluoromethyl)-1H-pyrazole-4-carboxylic acid] are 2.6 nM and 170.
Regarding `O=C(O)c1cnn(-c2cccc(-c3cccc(Cl)c3OCc3ccc(C4CCN(C(=O)C5CC5)CC4)cc3)n2)c1C(F)(F)F` [Example 84, 1-(6-(3-chloro-2-((4-(1-(cyclopropylcarbonyl)piperidin-4-yl)benzyl)oxy)phenyl)pyridin-2-yl)-5-(trifluoromethyl)-1H-pyrazole-4-carboxylic acid], the EC50 is 5.4 nM and the fold induction worked out at 50.
